Results reported in ChEMBL document CHEMBL2062402, “Discovery of HDAC Inhibitors That Lack an Active Site Zn(2+)-Binding Functional Group” (ACS Med Chem Lett, 2012).
Where a SMILES comes first, the peptide text is derived from it. [ ]: non-standard residue; d: D form. β3hL = CC(C)C[C@H](N)CC(=O)O; Nva = CCC[C@H](N)C(=O)O

How the values were obtained:
Histone deacetylase 1 [1] = target: T1, Histone deacetylase 1 (Homo sapiens, UniProt Q13547); assay: Inhibition of recombinant HDAC1 using Ac-Lys(Ac)-AMC as substrate after 30 mins by fluorescence analysis
Histone deacetylase 2 [2] = target: T2, Histone deacetylase 2 (Homo sapiens, UniProt Q92769); assay: Inhibition of recombinant HDAC2 using Ac-Lys(Ac)-AMC as substrate after 30 mins by fluorescence analysis
[3] = target: T3, Histone deacetylase 3/Nuclear receptor corepressor 2 (HDAC3/NCoR2) (Homo sapiens, UniProt O15379); assay: Inhibition of recombinant HDAC3/NCoR2 using Ac-Lys(Ac)-AMC as substrate after 30 mins by fluorescence analysis; format: protein-complex assay
[4] = target: T4, Protein deacetylase HDAC6 (Homo sapiens, UniProt Q9UBN7); assay: Inhibition of recombinant HDAC6 using Ac-Lys(Ac)-AMC as substrate after 30 mins by fluorescence analysis
T4 sequence (Q9UBN7 whole entry): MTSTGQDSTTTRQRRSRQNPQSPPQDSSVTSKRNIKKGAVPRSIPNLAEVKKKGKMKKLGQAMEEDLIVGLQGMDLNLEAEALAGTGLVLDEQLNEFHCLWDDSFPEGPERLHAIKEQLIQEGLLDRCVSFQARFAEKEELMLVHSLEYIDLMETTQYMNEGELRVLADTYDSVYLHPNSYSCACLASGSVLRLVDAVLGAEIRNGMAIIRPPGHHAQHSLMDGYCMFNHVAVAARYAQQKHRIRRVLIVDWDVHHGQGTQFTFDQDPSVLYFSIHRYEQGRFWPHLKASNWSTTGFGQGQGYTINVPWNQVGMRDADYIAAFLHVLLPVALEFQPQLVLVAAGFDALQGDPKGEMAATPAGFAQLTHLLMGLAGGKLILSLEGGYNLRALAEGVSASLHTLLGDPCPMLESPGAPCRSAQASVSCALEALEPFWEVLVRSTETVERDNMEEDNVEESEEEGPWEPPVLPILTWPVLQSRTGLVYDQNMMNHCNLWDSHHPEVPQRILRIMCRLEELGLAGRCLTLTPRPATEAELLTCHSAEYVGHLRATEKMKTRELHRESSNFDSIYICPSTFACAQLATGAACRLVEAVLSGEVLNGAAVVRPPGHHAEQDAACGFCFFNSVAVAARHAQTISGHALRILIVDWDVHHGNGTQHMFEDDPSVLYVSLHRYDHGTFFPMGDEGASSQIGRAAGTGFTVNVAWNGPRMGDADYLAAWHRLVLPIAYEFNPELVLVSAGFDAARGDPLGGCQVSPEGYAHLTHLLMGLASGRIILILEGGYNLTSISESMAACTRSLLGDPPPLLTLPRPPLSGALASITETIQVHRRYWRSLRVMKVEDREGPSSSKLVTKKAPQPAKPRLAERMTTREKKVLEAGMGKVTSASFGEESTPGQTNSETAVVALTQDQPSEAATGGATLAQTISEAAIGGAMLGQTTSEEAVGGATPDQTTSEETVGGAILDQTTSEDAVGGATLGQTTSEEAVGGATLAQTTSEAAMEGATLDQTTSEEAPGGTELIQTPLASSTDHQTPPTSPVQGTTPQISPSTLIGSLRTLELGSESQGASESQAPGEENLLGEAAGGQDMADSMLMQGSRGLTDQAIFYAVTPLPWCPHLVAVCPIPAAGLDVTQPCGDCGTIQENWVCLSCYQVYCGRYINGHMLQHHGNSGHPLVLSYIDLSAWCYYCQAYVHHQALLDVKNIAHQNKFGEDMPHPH

HL-60 = assay: cells; format: functional; details: Homo sapiens, HL-60, 72 h
Description: Growth inhibition of human HL60 cells after 72 hrs by XTT assay

Jurkat = assay: cells; format: functional; details: Homo sapiens, 72 h
Description: Growth inhibition of human Jurkat cells after 72 hrs by XTT assay

HeLa = assay: cells; format: functional; details: Homo sapiens, 72 h
Description: Growth inhibition of human HeLa cells after 72 hrs by XTT assay

MCF7 = assay: cells; format: functional; details: Homo sapiens, MCF7, 72 h
Description: Growth inhibition of human MCF7 cells after 72 hrs by XTT assay

[5] = Growth inhibition of human HEK293 cells at 100 uM after 72 hrs by XTT assay; format: cell-based; details: read-out: GI
[6] = target: T5, Protein deacetylase HDAC6 (Homo sapiens) (UniProt Q9UBN7); assay: Inhibition of recombinant HDAC6 using Ac-Lys(Ac)-AMC as substrate at 20 uM after 30 mins by fluorescence analysis
T5 sequence (whole entry): T4 sequence (Q9UBN7 whole entry)

in vitro = details: human, HEK293 cells
Description: Growth inhibition of human HEK293 cells after 72 hrs by XTT assay

[7] = target: T6, Histone deacetylase 3/Nuclear receptor corepressor 2 (HDAC3/NCoR2) (Homo sapiens) (UniProt O15379+Q9Y618); assay: Inhibition of recombinant HDAC3/NCoR2 at 1 uM; format: protein-complex assay
Histone deacetylase 1 [8] = target: T1, Histone deacetylase 1; assay: Ratio of IC50 for valproic acid to compound for recombinant HDAC1 using Ac-Lys(Ac)-AMC as substrate after 30 mins by fluorescence analysis
Histone deacetylase 2 [9] = target: T2, Histone deacetylase 2; assay: Ratio of IC50 for valproic acid to compound for recombinant HDAC2 using Ac-Lys(Ac)-AMC as substrate after 30 mins by fluorescence analysis
[10] = target: T6, Histone deacetylase 3/Nuclear receptor corepressor 2 (HDAC3/NCoR2) (Homo sapiens); assay: Ratio of IC50 for valproic acid to compound for recombinant HDAC3/NCoR2 using Ac-Lys(Ac)-AMC as substrate after 30 mins by fluorescence analysis; format: protein-complex assay
[11] = target: Histone deacetylase (Homo sapiens) (UniProt Q13547+O15379+Q9UBN7+Q92769+Q9UQL6+Q8WUI4+Q9BY41+Q96DB2+P56524+Q9UKV0+Q969S8); assay: Inhibition of HDAC in human Jurkat cells assessed as increase in acetylated histone H3 after 24 hrs by Western blot analysis; format: cell-based
Histone deacetylase 1 [12] = target: T1, Histone deacetylase 1; assay: Competitive inhibition of HDAC1 using Ac-Lys(Ac)-AMC as substrate by Lineweaver-Burk plot analysis
Histone deacetylase 2 [13] = target: T2, Histone deacetylase 2; assay: Competitive inhibition of HDAC2 using Ac-Lys(Ac)-AMC as substrate by Lineweaver-Burk plot analysis
[14] = target: T3, Histone deacetylase 3/Nuclear receptor corepressor 2 (HDAC3/NCoR2); assay: Competitive inhibition of HDAC3/NCoR2 using Ac-Lys(Ac)-AMC as substrate by Lineweaver-Burk plot analysis; format: protein-complex assay
[15] = Ratio of IC50 for valproic acid to compound for recombinant using Ac-Lys(Ac)-AMC as substrate after 30 mins by fluorescence analysis; details: Homo sapiens

T3 sequence (O15379 whole entry): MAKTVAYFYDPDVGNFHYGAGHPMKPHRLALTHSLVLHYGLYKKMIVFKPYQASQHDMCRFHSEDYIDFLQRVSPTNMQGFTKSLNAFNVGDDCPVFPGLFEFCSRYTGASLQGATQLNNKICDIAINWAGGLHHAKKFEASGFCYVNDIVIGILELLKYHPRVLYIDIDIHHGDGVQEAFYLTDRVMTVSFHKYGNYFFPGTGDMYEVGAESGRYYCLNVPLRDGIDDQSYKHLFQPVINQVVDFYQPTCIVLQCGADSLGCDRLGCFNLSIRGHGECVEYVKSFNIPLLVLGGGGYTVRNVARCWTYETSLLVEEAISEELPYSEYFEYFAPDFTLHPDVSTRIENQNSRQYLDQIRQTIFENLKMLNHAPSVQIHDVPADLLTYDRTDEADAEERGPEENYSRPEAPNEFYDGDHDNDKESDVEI
T3 sequence (Q9Y618 whole entry, further chain): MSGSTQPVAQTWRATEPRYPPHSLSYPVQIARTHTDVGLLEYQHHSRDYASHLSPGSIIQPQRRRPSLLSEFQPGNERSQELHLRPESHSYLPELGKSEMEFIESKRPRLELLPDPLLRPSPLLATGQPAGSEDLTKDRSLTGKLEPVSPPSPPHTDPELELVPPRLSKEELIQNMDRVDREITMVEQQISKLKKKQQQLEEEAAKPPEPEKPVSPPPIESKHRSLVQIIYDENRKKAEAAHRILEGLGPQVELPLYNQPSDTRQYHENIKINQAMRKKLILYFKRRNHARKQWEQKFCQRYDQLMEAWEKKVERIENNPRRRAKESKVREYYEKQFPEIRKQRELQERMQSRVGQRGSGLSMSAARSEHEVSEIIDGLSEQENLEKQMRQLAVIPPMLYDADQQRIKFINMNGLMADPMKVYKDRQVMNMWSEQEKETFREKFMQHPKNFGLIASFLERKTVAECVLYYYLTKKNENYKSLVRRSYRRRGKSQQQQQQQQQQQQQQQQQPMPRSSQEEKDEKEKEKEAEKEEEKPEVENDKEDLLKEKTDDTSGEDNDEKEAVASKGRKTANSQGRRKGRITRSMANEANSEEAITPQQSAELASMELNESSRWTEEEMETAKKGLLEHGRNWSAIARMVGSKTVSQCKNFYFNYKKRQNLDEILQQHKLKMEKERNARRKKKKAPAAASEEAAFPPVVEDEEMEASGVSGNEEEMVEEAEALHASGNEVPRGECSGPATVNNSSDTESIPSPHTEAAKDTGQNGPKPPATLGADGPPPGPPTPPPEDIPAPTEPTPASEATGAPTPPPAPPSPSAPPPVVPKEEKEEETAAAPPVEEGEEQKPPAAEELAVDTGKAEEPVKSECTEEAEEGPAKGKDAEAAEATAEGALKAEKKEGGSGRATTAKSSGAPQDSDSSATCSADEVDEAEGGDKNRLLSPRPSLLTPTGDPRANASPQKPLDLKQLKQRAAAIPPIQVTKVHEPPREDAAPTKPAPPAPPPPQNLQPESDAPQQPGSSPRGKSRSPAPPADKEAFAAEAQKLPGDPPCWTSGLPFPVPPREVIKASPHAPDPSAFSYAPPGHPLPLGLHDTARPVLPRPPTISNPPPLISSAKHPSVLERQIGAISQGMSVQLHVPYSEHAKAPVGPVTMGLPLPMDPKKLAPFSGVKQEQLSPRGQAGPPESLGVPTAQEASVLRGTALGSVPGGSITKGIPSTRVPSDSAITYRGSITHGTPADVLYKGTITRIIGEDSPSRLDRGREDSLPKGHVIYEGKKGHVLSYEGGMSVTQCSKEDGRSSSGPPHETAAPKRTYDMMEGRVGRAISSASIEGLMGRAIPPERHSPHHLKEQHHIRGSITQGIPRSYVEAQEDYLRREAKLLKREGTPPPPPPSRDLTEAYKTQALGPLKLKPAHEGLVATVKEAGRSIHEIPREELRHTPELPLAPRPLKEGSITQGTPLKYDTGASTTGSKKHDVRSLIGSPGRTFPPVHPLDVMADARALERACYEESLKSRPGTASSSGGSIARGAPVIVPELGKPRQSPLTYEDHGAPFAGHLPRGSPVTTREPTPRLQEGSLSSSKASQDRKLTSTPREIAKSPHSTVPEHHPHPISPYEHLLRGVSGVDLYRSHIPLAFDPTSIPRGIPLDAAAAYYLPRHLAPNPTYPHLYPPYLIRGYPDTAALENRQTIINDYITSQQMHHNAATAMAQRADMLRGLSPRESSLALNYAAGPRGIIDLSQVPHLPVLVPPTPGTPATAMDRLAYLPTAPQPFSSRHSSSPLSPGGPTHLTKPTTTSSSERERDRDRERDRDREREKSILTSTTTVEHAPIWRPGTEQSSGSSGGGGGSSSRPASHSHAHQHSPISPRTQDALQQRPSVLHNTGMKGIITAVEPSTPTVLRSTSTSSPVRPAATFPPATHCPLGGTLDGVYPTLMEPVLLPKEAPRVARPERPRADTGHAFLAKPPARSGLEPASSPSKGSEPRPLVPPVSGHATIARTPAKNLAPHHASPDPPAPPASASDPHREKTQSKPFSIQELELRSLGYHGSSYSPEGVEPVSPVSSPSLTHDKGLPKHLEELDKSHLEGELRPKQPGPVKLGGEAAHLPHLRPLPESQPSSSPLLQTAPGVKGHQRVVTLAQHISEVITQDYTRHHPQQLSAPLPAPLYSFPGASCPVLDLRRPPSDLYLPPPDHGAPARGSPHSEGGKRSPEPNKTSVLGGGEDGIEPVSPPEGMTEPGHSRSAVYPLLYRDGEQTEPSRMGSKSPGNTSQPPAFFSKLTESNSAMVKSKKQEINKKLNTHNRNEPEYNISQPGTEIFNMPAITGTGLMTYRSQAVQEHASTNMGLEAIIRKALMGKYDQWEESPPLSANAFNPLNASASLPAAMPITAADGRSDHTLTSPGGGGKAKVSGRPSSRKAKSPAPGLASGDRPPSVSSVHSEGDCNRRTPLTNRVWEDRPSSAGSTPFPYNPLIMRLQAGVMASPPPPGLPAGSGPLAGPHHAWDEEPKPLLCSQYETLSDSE
T1 sequence (Q13547 whole entry): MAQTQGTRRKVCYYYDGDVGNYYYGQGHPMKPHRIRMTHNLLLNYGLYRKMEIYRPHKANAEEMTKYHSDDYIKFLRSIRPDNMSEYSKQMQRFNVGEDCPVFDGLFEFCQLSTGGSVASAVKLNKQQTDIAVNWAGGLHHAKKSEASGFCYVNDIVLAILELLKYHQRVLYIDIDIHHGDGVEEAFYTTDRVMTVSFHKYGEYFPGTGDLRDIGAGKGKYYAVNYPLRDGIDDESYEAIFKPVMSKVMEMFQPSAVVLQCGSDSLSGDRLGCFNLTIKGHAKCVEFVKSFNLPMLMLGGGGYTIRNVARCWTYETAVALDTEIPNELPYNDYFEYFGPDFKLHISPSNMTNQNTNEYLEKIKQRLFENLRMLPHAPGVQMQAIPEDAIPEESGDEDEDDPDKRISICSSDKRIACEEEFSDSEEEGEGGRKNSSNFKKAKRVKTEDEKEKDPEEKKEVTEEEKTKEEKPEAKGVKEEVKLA
T2 sequence (Q92769 whole entry): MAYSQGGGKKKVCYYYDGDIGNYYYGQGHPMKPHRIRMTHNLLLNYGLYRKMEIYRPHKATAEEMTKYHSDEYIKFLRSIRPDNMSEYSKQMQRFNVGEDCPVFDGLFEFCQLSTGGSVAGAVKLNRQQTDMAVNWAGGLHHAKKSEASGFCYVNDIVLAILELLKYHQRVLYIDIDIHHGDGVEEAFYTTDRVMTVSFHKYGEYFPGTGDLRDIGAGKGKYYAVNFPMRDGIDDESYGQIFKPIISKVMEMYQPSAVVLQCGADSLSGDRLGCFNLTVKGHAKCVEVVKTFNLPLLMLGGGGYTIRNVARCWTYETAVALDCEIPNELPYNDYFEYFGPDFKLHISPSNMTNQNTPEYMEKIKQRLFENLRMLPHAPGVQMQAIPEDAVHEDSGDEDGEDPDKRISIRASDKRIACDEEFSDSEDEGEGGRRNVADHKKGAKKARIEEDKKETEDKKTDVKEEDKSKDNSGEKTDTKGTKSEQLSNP

CCC[C@@H]1NC(=O)[C@H](C)NC(=O)C[C@H](CC(C)C)NC(=O)[C@H](Cc2c[nH]c3ccccc23)NC1=O (cyclo(A[Nva]W[β3hL]))
IC50 (Histone deacetylase 1 [1]): 980 nM
IC50 (Histone deacetylase 2 [2]): 1500 nM
IC50 [3]: 1400 nM
IC50 [4]: > 20000 nM
GI50 (HL-60): 8200 nM
GI50 (Jurkat): 12000 nM
GI50 (HeLa): 81000 nM
GI50 (MCF7): 40000 nM
inhibition at 72 h, 100 µM [5]: 33%
inhibition [6]: 37%
GI50 at 72 h (in vitro): > 100000 nM

CCC(=O)CCCCC[C@@H]1NC(=O)[C@H]2CCCCN2C(=O)[C@H]([C@@H](C)CC)NC(=O)[C@H](Cc2cn(OC)c3ccccc23)NC1=O [APICIDIN]
GI50 (HL-60): 280 nM
GI50 (Jurkat): 830 nM
GI50 (HeLa): 1400 nM
GI50 (MCF7): 6800 nM
GI50 at 72 h (in vitro): 11000 nM

CCC[C@@H]1NC(=O)[C@H](C)NC(=O)C[C@H](CC(C)C)NC(=O)[C@H](Cc2cn(CN(C)C)c3ccccc23)NC1=O
inhibition [7]: 60%
IC50 (Histone deacetylase 1 [1]): 680 nM
IC50 (Histone deacetylase 2 [2]): 1400 nM
IC50 [3]: 800 nM
IC50 [4]: > 20000 nM
Ratio IC50 (Histone deacetylase 1 [8]): 40
Ratio IC50 (Histone deacetylase 2 [9]): 40
Ratio IC50 [10]: 200
GI50 (HL-60): 2800 nM
GI50 (Jurkat): 8100 nM
GI50 (HeLa): 62000 nM
GI50 (MCF7): 47000 nM
inhibition [11]: Dose-dependent effect
Ki (Histone deacetylase 1 [12]): 49 nM
Ki (Histone deacetylase 2 [13]): 33 nM
Ki [14]: 37 nM
inhibition [6]: 46%
GI50 at 72 h (in vitro): 100000 nM
Ratio IC50 [15]: 40
